Laboratory results from ChEMBL document CHEMBL1201862, “PubChem BioAssay data set” (2004).
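Tested at 5 concentrations; 48 h exposure; 96-well plates; endpoints linearly interpolated, else capped at highest concentration. GI50: concentration for 50% inhibition of growth.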 Calls of active or inactive are those of the source. Rule as the data show it: active = GI50 up to about 1.1 µM and inactive = higher.

What was measured:
Experiment in all cases: NCI anticancer screen, dose series, 48 h
[1] = tested on: CCRF-CEM
[2] = tested on: COLO 205
[3] = tested on: EKVX
[4] = tested on: HL-60
[5] = tested on: Hs-578T
[6] = tested on: K562
[7] = tested on: KM12
[8] = tested on: MDA-MB-435
[9] = tested on: MOLT-4
[10] = tested on: OVCAR-4
[11] = tested on: PC-3
[12] = tested on: SF-268
[13] = tested on: SF-295
[14] = tested on: SK-MEL-5
[15] = tested on: SNB-19
[16] = tested on: TK-10
[17] = tested on: U-251
[18] = tested on: UACC-257
[19] = tested on: UACC-62
[20] = tested on: A498

SMILES	GI50 [1]	GI50 [2]	GI50 [3]	GI50 [4]	GI50 [5]	GI50 [6]	GI50 [7]	GI50 [8]	GI50 [9]	GI50 [10]	GI50 [11]	GI50 [12]	GI50 [13]	GI50 [14]	GI50 [15]	GI50 [16]	GI50 [17]	GI50 [18]	GI50 [19]	GI50 [20]
O=C(O)c1cc(/C=C/c2ccc(O)c(O)c2)ccc1O	24.5 µM (inactive)	> 100 µM (inactive)	> 100 µM (inactive)	30.7 µM (inactive)	> 100 µM (inactive)	20.3 µM (inactive)	> 100 µM (inactive)	77.8 µM (inactive)	30.8 µM (inactive)	> 100 µM (inactive)	> 100 µM (inactive)	> 100 µM (inactive)	> 100 µM (inactive)	> 100 µM (inactive)	> 100 µM (inactive)	> 100 µM (inactive)	> 100 µM (inactive)	> 100 µM (inactive)	> 100 µM (inactive)	
CN(C)c1ccc(C=c2c3ccccc3n3c2cc(-c2ccc(Cl)cc2)[n+]3C)cc1	0.0649 µM (active)	0.0705 µM (active)	0.617 µM (active)	0.101 µM (active)		< 0.0462 µM (active)	0.105 µM (active)	0.207 µM (active)	0.147 µM (active)	0.748 µM (active)	0.167 µM (active)	0.473 µM (active)	0.501 µM (active)	0.167 µM (active)	0.268 µM (active)	0.578 µM (active)	0.0269 µM (active)	0.158 µM (active)	0.291 µM (active)	1.51 µM (inactive)
CC(C)(C)OC(=O)N1N=CCC1c1ccccc1 (centres undefined)	56.2 µM (inactive)	> 100 µM (inactive)	> 100 µM (inactive)	> 100 µM (inactive)	> 100 µM (inactive)	> 100 µM (inactive)	> 100 µM (inactive)	> 100 µM (inactive)				> 100 µM (inactive)	> 100 µM (inactive)	> 100 µM (inactive)		> 100 µM (inactive)		> 100 µM (inactive)	> 100 µM (inactive)	> 100 µM (inactive)
CC1NC(/C(=C/c2ccccc2O)NC(=O)c2ccccc2)OC1=O (centres undefined)	> 50 µM (inactive)	> 50 µM (inactive)	30.4 µM (inactive)	23.3 µM (inactive)		> 50 µM (inactive)	4.74 µM (inactive)	28.8 µM (inactive)	> 50 µM (inactive)	> 50 µM (inactive)	30.7 µM (inactive)		> 50 µM (inactive)	39.7 µM (inactive)	> 50 µM (inactive)	> 50 µM (inactive)	> 50 µM (inactive)	> 50 µM (inactive)	> 50 µM (inactive)	> 50 µM (inactive)
O=C1COC(c2ccccc2O)=NN1CCCN1CCCC1		> 100 µM (inactive)	> 100 µM (inactive)		> 100 µM (inactive)		> 100 µM (inactive)	> 100 µM (inactive)	> 100 µM (inactive)	> 100 µM (inactive)	> 100 µM (inactive)	> 100 µM (inactive)	> 100 µM (inactive)	> 100 µM (inactive)	> 100 µM (inactive)	> 100 µM (inactive)	> 100 µM (inactive)	> 100 µM (inactive)	> 100 µM (inactive)	> 100 µM (inactive)
CCN(c1cccc(NC(=S)Nc2ccccc2N(CC)c2cc(-c3ccccc3)no2)c1)c1cc(-c2ccccc2)no1	> 100 µM (inactive)	> 100 µM (inactive)	> 100 µM (inactive)	> 100 µM (inactive)	> 100 µM (inactive)	> 100 µM (inactive)	> 100 µM (inactive)	> 100 µM (inactive)	> 100 µM (inactive)	> 100 µM (inactive)	> 100 µM (inactive)	> 100 µM (inactive)	> 100 µM (inactive)	> 100 µM (inactive)	> 100 µM (inactive)	> 100 µM (inactive)	> 100 µM (inactive)	> 100 µM (inactive)	> 100 µM (inactive)	
CC(C)(O)C1CC(=O)C(C)(C2C(O)CC3(C)C4CC=C5C(CCC(O)C5(C)C)C4(C)C(=O)CC23C)O1 (centres undefined)		> 100 µM (inactive)	> 100 µM (inactive)		> 100 µM (inactive)	> 100 µM (inactive)	> 100 µM (inactive)	> 100 µM (inactive)	> 100 µM (inactive)	> 100 µM (inactive)	> 100 µM (inactive)	> 100 µM (inactive)	> 100 µM (inactive)	> 100 µM (inactive)	> 100 µM (inactive)	> 100 µM (inactive)	> 100 µM (inactive)	> 100 µM (inactive)	> 100 µM (inactive)	> 100 µM (inactive)
O=[N+]([O-])c1cccc2nc3ccccc3c(NCCCCNc3c4ccccc4nc4cccc([N+](=O)[O-])c34)c12	< 0.016 µM (active)	0.0199 µM (active)	0.104 µM (active)	< 0.01 µM (active)	0.191 µM (active)	< 0.0216 µM (active)	0.0401 µM (active)	0.0489 µM (active)	< 0.0104 µM (active)	0.0948 µM (active)	0.0719 µM (active)	0.0203 µM (active)	0.0927 µM (active)	0.0365 µM (active)	0.0302 µM (active)	0.0213 µM (active)	0.0261 µM (active)	0.146 µM (active)	0.134 µM (active)	
CN(C)c1nc(N(C)C)nc(N(C)C23CC4CC(CC(C4)C2)C3)n1	22.4 µM (inactive)	15.1 µM (inactive)	32 µM (inactive)			49.3 µM (inactive)	44.5 µM (inactive)	40.2 µM (inactive)		44.8 µM (inactive)	24.5 µM (inactive)	39.5 µM (inactive)	18.4 µM (inactive)		31.7 µM (inactive)		30.1 µM (inactive)	34.3 µM (inactive)	56.8 µM (inactive)	> 100 µM (inactive)
c1cc2c3c(c1)[C@@H]1O[C@@H]1c1cccc(c1-3)[C@@H]1O[C@H]21		18.1 µM (inactive)	16.6 µM (inactive)		17.6 µM (inactive)	17.7 µM (inactive)	17.1 µM (inactive)	14.3 µM (inactive)	35 µM (inactive)	19.8 µM (inactive)	22.9 µM (inactive)	16.3 µM (inactive)	23.6 µM (inactive)	17.9 µM (inactive)	53.3 µM (inactive)	32.2 µM (inactive)	16.9 µM (inactive)	18.2 µM (inactive)	16.5 µM (inactive)	63.8 µM (inactive)
O=c1c2c3c(sc2nc2n1N=C(c1ccc(Br)cc1)CS2)CCCC3	> 100 µM (inactive)	> 100 µM (inactive)	> 100 µM (inactive)	> 100 µM (inactive)		> 100 µM (inactive)	> 100 µM (inactive)	> 100 µM (inactive)	> 100 µM (inactive)	> 100 µM (inactive)	> 100 µM (inactive)	> 100 µM (inactive)	> 100 µM (inactive)		> 100 µM (inactive)	> 100 µM (inactive)	> 100 µM (inactive)	> 100 µM (inactive)	> 100 µM (inactive)	> 100 µM (inactive)
S=C(NCCc1ccccn1)c1nc[nH]c1C(=S)NCCc1ccccn1	26.1 µM (inactive)	49.7 µM (inactive)	83.8 µM (inactive)		20.7 µM (inactive)	40.8 µM (inactive)	24 µM (inactive)	30.1 µM (inactive)		33.8 µM (inactive)	39.2 µM (inactive)	66.1 µM (inactive)	25.1 µM (inactive)	31.7 µM (inactive)	60.3 µM (inactive)	62.1 µM (inactive)	45.5 µM (inactive)	> 100 µM (inactive)	22.7 µM (inactive)	> 100 µM (inactive)
O=C1C(NS(=O)(=O)c2ccccc2)=C(n2ccnc2)C(=O)c2ccccc21	> 100 µM (inactive)	> 100 µM (inactive)	> 100 µM (inactive)	> 100 µM (inactive)	> 100 µM (inactive)	> 100 µM (inactive)	> 100 µM (inactive)	> 100 µM (inactive)	> 100 µM (inactive)	> 100 µM (inactive)	> 100 µM (inactive)	> 100 µM (inactive)	> 100 µM (inactive)	> 100 µM (inactive)	> 100 µM (inactive)	24.7 µM (inactive)	> 100 µM (inactive)	> 100 µM (inactive)	> 100 µM (inactive)	
Nc1ncnc2c1nc(Cl)n2C1OC2COP(=O)(O)OC2C1O (centres undefined)	1.29 µM (inactive)	5.55 µM (inactive)	22.4 µM (inactive)	1.23 µM (inactive)	19.6 µM (inactive)	1.01 µM (active)	41.6 µM (inactive)	7.82 µM (inactive)	2.81 µM (inactive)	24.2 µM (inactive)		> 51.8 µM (inactive)	> 35.4 µM (inactive)	> 47.4 µM (inactive)	> 100 µM (inactive)	6.49 µM (inactive)	50.6 µM (inactive)	18.9 µM (inactive)	10.4 µM (inactive)	1.69 µM (inactive)
CC(C)=CCOc1cc(NC(=S)c2ccoc2C)ccc1Cl [UC 781]	39.6 µM (inactive)	> 100 µM (inactive)	> 100 µM (inactive)		48.6 µM (inactive)		> 100 µM (inactive)	> 100 µM (inactive)	9.38 µM (inactive)	> 100 µM (inactive)	> 100 µM (inactive)	45.5 µM (inactive)	> 100 µM (inactive)	> 100 µM (inactive)	81.1 µM (inactive)	> 100 µM (inactive)	48.5 µM (inactive)	> 100 µM (inactive)	> 100 µM (inactive)	> 100 µM (inactive)
